Experimental findings from patent US7217827B2, “Halogen-containing aromatic compound” (Nippon Shokubai Co., Ltd., priority 2001, dated 2007) are described below.

The series can be described thus: Solubility to dimethylacetoamide at 25° C., solution then left standing for a night. The following applies: for solubility to dimethylacetoamide: at 25° C.; for precipitation from the dimethylacetoamide solution on standing: solution left standing for a night.

On to `O=C1OC(=O)c2c(F)c(Oc3c(Cl)c(Cl)c(Oc4c(F)c(F)c5c(c4F)C(=O)OC5=O)c(Cl)c3Cl)c(F)c(F)c21` [Example 1, 1,4-bis(3,4-dicarboxytrifluorophenoxy)tetrachlorobenzene dianhydride], for which the solubility to dimethylacetoamide was 22 wt. % and the “precipitation from the dimethylacetoamide solution on standing” value is given as “precipitations were not found”.
Take `Nc1c(F)c(N)c(F)c(Cl)c1F` [Example III-1, 5-chloro-2,4,6-trifluoro-m-phenylenediamine]: the solubility to dimethylacetoamide is 68 wt. % and the “precipitation from the dimethylacetoamide solution on standing” value is “precipitations were not found”.
